Test [1] concerns OCT receptor sites, NG-108 cells. The format is binding, Rat glioma x mouse neuroblastoma.
Test [2] relates to voltage-gated calcium channels, N1E115 mouse neuroblastoma cells. The format is cell-based.

The values below come from US5051403A (priority 1989, dated 1991).

As for `CSCC[C@@H]1NC(=O)[C@H](CC(C)C)NC(=O)[C@H](CCCNC(=N)N)NC(=O)[C@H](CO)NC(=O)[C@@H]2CSSC[C@@H]3NC(=O)[C@H](CO)NC(=O)CNC(=O)[C@H]([C@@H](C)O)NC(=O)[C@H](CSSC[C@H](N)C(=O)N[C@@H](CCCCN)C(=O)NCC(=O)N[C@@H](CCCCN)C(=O)NCC(=O)N[C@@H](C)C(=O)N[C@@H](CCCCN)C(=O)N2)NC(=O)[C@H](CSSC[C@@H](C(N)=O)NC(=O)[C@H](CCCCN)NC(=O)CNC(=O)[C@H](CO)NC(=O)[C@H](CCCNC(=N)N)NC3=O)NC(=O)[C@H](CC(=O)O)NC(=O)[C@H](Cc2ccc(O)cc2)NC1=O` [MVIIA], the “concentration of specific binding sites” value in test [1] stood at 45.6.

With `C[C@@H](O)[C@@H]1NC(=O)[C@H](Cc2ccc(O)cc2)NC(=O)[C@@H]2C[C@@H](O)CN2C(=O)[C@H](CC(N)=O)NC(=O)[C@@H]2CSSC[C@@H]3NC(=O)[C@H](CO)NC(=O)[C@H](CO)NC(=O)CNC(=O)[C@@H]4C[C@@H](O)CN4C(=O)[C@H](CO)NC(=O)[C@H](CCCCN)NC(=O)[C@@H](N)CSSC[C@H](NC(=O)[C@H](CSSC[C@@H](C(=O)N[C@@H](Cc4ccc(O)cc4)C(N)=O)NC(=O)[C@H](CCCNC(=N)N)NC(=O)[C@H](CCCCN)NC1=O)NC(=O)[C@H](CC(N)=O)NC(=O)[C@H](Cc1ccc(O)cc1)NC(=O)[C@H](CO)NC(=O)[C@H]([C@@H](C)O)NC(=O)[C@@H]1C[C@@H](O)CN1C(=O)[C@H](CO)NC3=O)C(=O)N[C@@H](CCCNC(=N)N)C(=O)N[C@@H](CO)C(=O)N2` [GVIA, HCysLysSer4HypGlySerSerCysSer4HypThrSerTyrAsnCysCysArgSerCysAsn4HypTyrLysArgCysTyr-NH2], the “ED50 (50% inhibition of calcium current)” value in test [2] came to 12 nM.
